Values of other authors as cited in patent publication US20220015356A1, “AQUEOUS SOLUTIONS OF POORLY SOLUBLE PESTICIDES USING POLYALKYOXYLATED ALCOHOLS” (priority 2018, published 2022).

Details: at 20° C.

Which water solubility does the source give for `COC(=O)N(OC)c1ccccc1COc1ccn(-c2ccc(Cl)cc2)n1` [pyraclostrobin] here?
Its water solubility is under 1.9 µg/mL.
